How the values were obtained:
[1] = tested on: individuals with essential tremor; experiment: Phase 2 study, Compound 1 60 mg once daily for 28 days: TETRAS performance subscale total score; assay type: in vivo, human; conditions: Full Analysis Set
Experimental: As used herein, “The Essential Tremor Rating Assessment Scale (TETRAS) performance subscale total score” refers to an assessment scale for essential tremor developed by The Tremor Research Group (Elble, R. J., J. Neurol. Neuromedicine 1(4):34-38 (2016); Elble, R. J. et. al., Mov. Disord. 27(12); 1567-1569 (2012)). The TETRAS […] performance subscale includes 9 metrics or characteristics, wherein each metric or characteristic is scored 0 to 4. Some metrics or characteristics are performed on both right and left limbs and/or include multiple subitems. Scores for each of the 9 characteristics are then added to give a total score of no greater than 64. The 9 metrics or characteristics include:
(§1) Participants were 18 to 80 years of age, inclusive, diagnosed of ET of at least 3 years duration with scores of at least 1.5 for each of the six items that comprised the combined total upper limb TETRAS (total performance subscale part 4) with the total score for the dominant upper limb (the sum of the 3 items for either the right or left upper limb, whichever is dominant) being at least 5.5, at both Screening and predose on Day 1.
(§2) Participants were randomized to receive Compound 1 60 mg or placebo once daily in the morning on a 1:1 basis. If participants reported a TEAE considered by investigator to be related to Compound 1 and not tolerable, investigator might reduce the dose of Compound 1 from 60 mg in 15 mg decrements (i.e., 60 mg, to 45 mg, to 30 mg), as medically appropriate. If intolerable TEAEs persist at the 30 mg dose, Compound 1 was permanently stopped.
(§3) This study included a Screening Period of up to 28 days, a 29-day treatment period consisting of 28 days of dosing with the end of treatment visit intended to be on Day 29 at trough, and a 14-day follow-up period relative to final dose. Study patients were not taking other medications for essential tremor during the 28-day treatment period.

[2] = tested on: individuals with essential tremor; experiment: Phase 2 study, Compound 1 60 mg once daily for 28 days: TETRAS ADL total score; assay type: in vivo, human
Excerpt: As used herein, “The Essential Tremor Rating Assessment Scale (TETRAS) activities of daily living (ADL) subscale total score” refers to an assessment scale for essential tremor developed by The Tremor Research Group (Elble, R. J., J. Neurol. Neuromedicine 1(4):34-38 (2016); Elble, R. J. et. al., Mov. Disord. 27(12); 1567-1569 (2012)). The TETRAS ADL subscale includes 12 metrics or characteristics, wherein each metric or characteristic is scored 0, 1, 2, 3, or 4 based on the severity of the characteristic present in the subject. Scores for each of the 12 characteristics are then added to give a total score of no greater than 48. The 12 characteristics scored in the TETRAS ADL subscale total score include:
as §1, §2, §3
Similarly, an MMRM was be used for the analysis of the following variables: changes from baseline in TETRAS performance subscale part 4, 6, 7, and 8 combined score, and TETRAS ADL score. For each model, the comparison of interest was between Compound 1 tablets and matching placebo at the 15-day time point. Model-based point estimates (i.e., LS means), 95% confidence intervals, and p-values were reported.

[3] = Baseline TETRAS ADL < 28, Day 29
[4] = Baseline TETRAS ADL ≥ 28, Day 29

SMILES: COC[C@@]1(O)CC[C@H]2[C@@H](CC[C@@H]3[C@@H]2CC[C@]2(C)[C@@H](C(=O)Cn4nnc(C)n4)CC[C@@H]32)C1 [Compound 1]
- LSMean difference vs placebo in change from baseline in TETRAS performance subscale total score ([1]; Day 8): −1.26
- Model-based LSMean (SE) change from baseline in TETRAS performance subscale total score ([1]; Day 8): −3.55 (0.780)
- LSMean difference vs placebo in change from baseline in TETRAS performance subscale total score ([1]; Day 15, 5 hr postdose): −1.52
- Model-based LSMean (SE) change from baseline in TETRAS performance subscale total score ([1]; Day 15, 5 hr postdose): −5.90 (1.015)
- LSMean difference vs placebo in change from baseline in TETRAS performance subscale total score ([1]; Day 15, 8 hr postdose): 0.01
- Model-based LSMean (SE) change from baseline in TETRAS performance subscale total score ([1]; Day 15, 8 hr postdose): −4.61 (0.954)
- LSMean difference vs placebo in change from baseline in TETRAS performance subscale total score ([1]; Day 15, predose): −0.91
- Model-based LSMean (SE) change from baseline in TETRAS performance subscale total score ([1]; Day 15, predose): −3.46 (0.878)
- LSMean difference vs placebo in change from baseline in TETRAS performance subscale total score ([1]; Day 22): −0.24
- Model-based LSMean (SE) change from baseline in TETRAS performance subscale total score ([1]; Day 22): −3.16 (0.914)
- LSMean difference vs placebo in change from baseline in TETRAS performance subscale total score ([1]; Day 29): −0.32 (−2.78, 2.14)
- Model-based LSMean (SE) change from baseline in TETRAS performance subscale total score ([1]; Day 29): −3.22 (0.922)
- LSMean difference vs placebo in change from baseline in TETRAS performance subscale total score ([1]; Day 29, listed as Cmpd 1): −0.32
- LSMean difference vs placebo in change from baseline in TETRAS performance subscale total score ([1]; Day 42): 2.28
- Model-based LSMean (SE) change from baseline in TETRAS performance subscale total score ([1]; Day 42): −1.59 (0.820)
- LSMean (SE) CFB in TETRAS ADL total score [2, 3]: −2.84
- LSMean Difference (CI) vs placebo in CFB in TETRAS ADL total score [2, 3]: −1.17
- Mean (SD) % CFB in TETRAS ADL total score [2, 3]: −16.52%
- LSMean (SE) CFB in TETRAS ADL total score [2, 4]: −5.67
- Mean (SD) % CFB in TETRAS ADL total score [2, 4]: −18.10%
- Model-based LSMean (SE) change from baseline in TETRAS ADL total score ([2]; Full Analysis Set, Day 8): −5.34 (0.845)
- LSMean difference vs placebo in change from baseline in TETRAS ADL total score ([2]; Full Analysis Set, Day 15): −2.95
- Model-based LSMean (SE) change from baseline in TETRAS ADL total score ([2]; Full Analysis Set, Day 15): −5.43 (0.945)
- LSMean difference vs placebo in change from baseline in TETRAS ADL total score ([2]; Full Analysis Set, Day 22): −2.56
- Model-based LSMean (SE) change from baseline in TETRAS ADL total score ([2]; Full Analysis Set, Day 22): −5.24 (0.904)
- Mean (SD) % CFB in TETRAS ADL total score ([2]; Full Analysis Set, Day 29): −17.4%
- Model-based LSMean (SE) change from baseline in TETRAS ADL total score ([2]; Full Analysis Set, Day 29): −4.24 (0.940)
- LSMean difference vs placebo in change from baseline in TETRAS ADL total score ([2]; Full Analysis Set, Day 29, listed as Cmpd 1): −1.37
- LSMean difference vs placebo in change from baseline in TETRAS ADL total score ([2]; Full Analysis Set, Day 42): 1.13
- Model-based LSMean (SE) change from baseline in TETRAS ADL total score ([2]; Full Analysis Set, Day 42): −2.14 (0.905)

From patent publication US20240238314A1, “TREATMENT OF ESSENTIAL TREMOR” (Sage Therapeutics, Inc., priority 2021, published 2024)
